ChEMBL document CHEMBL2040762, “Hypnotic effects and GABAergic mechanism of licorice (Glycyrrhiza glabra) ethanol extract and its major flavonoid constituent glabrol” (Bioorg Med Chem, 2012)
Activity calls are given as the source filed them. The rule behind the calls is not given here.

Assays:
Mus musculus [1] = assay: Hypnotic activity in fasted C57BL/6N mouse assessed as decrease in pentobarbital-induced sleep latency at 10 mg/kg, po administered 45 mins prior to pentobarbital-induction coadministered with flumazenil by polysomnographic analysis; format: functional, organism-based; design: dose 10 mg/kg
Mus musculus [2] = assay: Hypnotic activity in fasted C57BL/6N mouse assessed as increase in pentobarbital-induced sleep duration at 10 mg/kg, po administered 45 mins prior to pentobarbital-induction coadministered with flumazenil by polysomnographic analysis; format: functional, organism-based; design: dose 10 mg/kg
Mus musculus [3] = assay: Hypnotic activity in fasted C57BL/6N mouse assessed as increase in pentobarbital-induced sleep duration at 2.5 mg/kg, po administered 45 mins prior to pentobarbital-induction coadministered with flumazenil by polysomnographic analysis; format: functional, organism-based; design: dose 2.5 mg/kg
Mus musculus [4] = assay: Hypnotic activity in fasted C57BL/6N mouse assessed as […] in latency of pentobarbital-induced sleep at 10 mg/kg, po administered 45 mins prior to pentobarbital-induction by polysomnographic analysis; format: functional, organism-based; design: dose 10 mg/kg
Mus musculus [5] = assay: Hypnotic activity in fasted C57BL/6N mouse assessed as increase in pentobarbital-induced sleep duration at 10 mg/kg, po administered 45 mins prior to pentobarbital-induction by polysomnographic analysis; format: functional, organism-based; design: dose 10 mg/kg
Mus musculus [6] = assay: Hypnotic activity in po dosed fasted C57BL/6N mouse assessed as change in pentobarbital-induced non-rapid eye movement sleep duration at 2 mg/kg, po administered 45 mins prior to pentobarbital-induction measured up to 3 hrs by polysomnographic analysis; format: functional, organism-based; design: dose 2 mg/kg
Mus musculus [7] = assay: Hypnotic activity in po dosed fasted C57BL/6N mouse assessed as change in pentobarbital-induced rapid eye movement sleep duration at 2 mg/kg, po administered 45 mins prior to pentobarbital-induction measured up to 3 hrs by polysomnographic analysis; format: functional, organism-based; design: dose 2 mg/kg
Mus musculus [8] = assay: Hypnotic activity in fasted C57BL/6N mouse assessed as decrease in pentobarbital-induced sleep latency at 2 mg/kg, po administered 45 mins prior to pentobarbital-induction coadministered with flumazenil by polysomnographic analysis; format: functional, organism-based; design: dose 2 mg/kg
Mus musculus [9] = assay: Hypnotic activity in po dosed fasted C57BL/6N mouse assessed as decrease in pentobarbital-induced non-rapid eye movement sleep duration at 2 mg/kg, po administered 45 mins prior to pentobarbital-induction by polysomnographic analysis; format: functional, organism-based; design: dose 2 mg/kg
Mus musculus [10] = assay: Hypnotic activity in fasted C57BL/6N mouse assessed as increase in pentobarbital-induced sleep duration at 2 mg/kg, po administered 45 mins prior to pentobarbital-induction coadministered with flumazenil by polysomnographic analysis; format: functional, organism-based; design: dose 2 mg/kg
Mus musculus [11] = assay: Hypnotic activity in po dosed fasted C57BL/6N mouse assessed as effect on pentobarbital-induced rapid eye movement sleep duration at 2 mg/kg, po administered 45 mins prior to pentobarbital-induction by polysomnographic analysis; format: functional, organism-based; design: dose 2 mg/kg
Mus musculus [12] = assay: Hypnotic activity in fasted C57BL/6N mouse assessed as increase in pentobarbital-induced sleep duration at 0.5 mg/kg, po administered 45 mins prior to pentobarbital-induction coadministered with flumazenil by polysomnographic analysis; format: functional, organism-based; design: dose 0.5 mg/kg
Mus musculus [13] = assay: Hypnotic activity in po dosed fasted C57BL/6N mouse assessed as decrease in latency of pentobarbital-induced sleep at 2 mg/kg, po administered 45 mins prior to pentobarbital-induction by polysomnographic analysis; format: functional, organism-based; design: dose 2 mg/kg
Mus musculus [14] = assay: Hypnotic activity in po dosed fasted C57BL/6N mouse assessed as increase in pentobarbital-induced non-rapid eye movement sleep duration at 2 mg/kg, po administered 45 mins prior to pentobarbital-induction measured up to 2 hrs by polysomnographic analysis; format: functional, organism-based; design: dose 2 mg/kg
Mus musculus [15] = assay: Hypnotic activity in po dosed fasted C57BL/6N mouse assessed as decrease in pentobarbital-induced non-rapid eye movement sleep EEG delta activity at 2 mg/kg, po administered 45 mins prior to pentobarbital-induction by polysomnographic analysis; format: functional, organism-based; design: dose 2 mg/kg
Mus musculus [16] = assay: Hypnotic activity in po dosed fasted C57BL/6N mouse assessed as decrease in latency of pentobarbital-induced sleep administered 45 mins prior to pentobarbital-induction by polysomnographic analysis; format: functional, organism-based
Mus musculus [17] = assay: Hypnotic activity in fasted C57BL/6N mouse assessed as increase in pentobarbital-induced sleep duration at 50 mg/kg, po administered 45 mins prior to pentobarbital-induction by polysomnographic analysis; format: functional, organism-based; design: dose 50 mg/kg
Mus musculus [18] = assay: Hypnotic activity in fasted C57BL/6N mouse assessed as increase in pentobarbital-induced sleep duration at 50 mg/kg, po administered 45 mins prior to pentobarbital-induction coadministered with flumazenil by polysomnographic analysis; format: functional, organism-based; design: dose 50 mg/kg
Mus musculus [19] = assay: Hypnotic activity in fasted C57BL/6N mouse assessed as […] in latency of pentobarbital-induced sleep at 50 mg/kg, po administered 45 mins prior to pentobarbital-induction by polysomnographic analysis; format: functional, organism-based; design: dose 50 mg/kg
Mus musculus [20] = assay: Hypnotic activity in fasted C57BL/6N mouse assessed as decrease in latency of pentobarbital-induced sleep at 50 mg/kg, po administered 45 mins prior to pentobarbital-induction coadministered with flumazenil by polysomnographic analysis; format: functional, organism-based; design: dose 50 mg/kg
Mus musculus [21] = assay: Hypnotic activity in po dosed fasted C57BL/6N mouse assessed as increase in pentobarbital-induced sleep duration administered 45 mins prior to pentobarbital-induction by polysomnographic analysis; format: functional, organism-based
[22] = Displacement of [3H]flumazenil from GABA(A)-BZD receptor in Sprague-Dawley rat cerebral cortex membranes after 40 mins by liquid scintillation counting; format: cell membranes, Membrane

## Cc1ccc(-c2nc3ccc(C)cn3c2CC(=O)N(C)C)cc1
Mus musculus [1]
  Activity: inactive
Mus musculus [2]
  Activity: inactive
Mus musculus [3]
  Activity: inactive
Mus musculus [4]
  Activity: Active
Mus musculus [5]
  Activity: Active

## CN1C(=O)CN=C(c2ccccc2)c2cc(Cl)ccc21
Mus musculus [6]
  Activity: inactive
Mus musculus [7]
  Activity: inactive
Mus musculus [8]
  Activity: inactive
Mus musculus [9]
  Activity: Active
Mus musculus [10]
  Activity: inactive
Mus musculus [11]
  Activity: inactive
Mus musculus [12]
  Activity: inactive
Mus musculus [13]
  Activity: Active
Mus musculus [14]
  Activity: Active
Mus musculus [15]
  Activity: Active

## CC(C)=CCc1cc([C@@H]2CC(=O)c3ccc(O)c(CC=C(C)C)c3O2)ccc1O [GLABROL]
Mus musculus [16]
  Activity: Dose-dependent effect
Mus musculus [17]
  Activity: Active
Mus musculus [18]
  Activity: inactive
Mus musculus [19]
  Activity: Active
Mus musculus [20]
  Activity: inactive
Mus musculus [21]
  Activity: Dose-dependent effect
[22]
  Ki: 1630 nM
